Assay results taken from PMC8744071 (ACS infectious diseases, 2021).
“Also recorded” adds a separate entry of the source. Where a SMILES comes first, the peptide text is derived from it. Primed or numbered codes have the meaning given here. Where no end group is shown, it is not given here. Side-chain parts run from the residue outwards. [ ]: non-standard residue; d: D form. The star is where a group is joined. CB‑TE1A1P = O=C(CN1CCCN2CCN(CCCN(CP(=O)(O)O)CC2)CC1)*; cinnamoyl = O=C(/C=C/c1ccccc1)*; PEG12′ = not defined here

What was measured:
lung granulomas = settings: cynomolgus monkey, in vivo
[1] = Gamma counting of Percoll-separated blood fractions; type: in vivo, cynomolgus macaques (Macaca fascicularis); settings: Percoll gradient separation: RBC pellet, buffy coat, plasma
FPR1 = target: T1, FPR1 (Homo sapiens, UniProt P21462); experiment: FPR1 receptor internalization in GFP-FPR1 HEK293T cells; type: cell-based; settings: fluorescence imaging, vs untreated controls
T1 sequence (P21462 1-350): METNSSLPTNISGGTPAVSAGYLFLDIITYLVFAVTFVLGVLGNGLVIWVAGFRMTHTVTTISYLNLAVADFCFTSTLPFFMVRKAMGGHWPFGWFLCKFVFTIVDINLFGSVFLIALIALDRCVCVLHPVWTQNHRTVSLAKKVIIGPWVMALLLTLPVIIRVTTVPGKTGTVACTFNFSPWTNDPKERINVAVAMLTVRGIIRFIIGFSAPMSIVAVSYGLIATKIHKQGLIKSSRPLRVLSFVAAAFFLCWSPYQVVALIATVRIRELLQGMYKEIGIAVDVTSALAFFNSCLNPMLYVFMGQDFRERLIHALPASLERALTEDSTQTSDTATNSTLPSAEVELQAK

Gr-1 stained neutrophils = experiment: Immunofluorescence microscopy of CFA-injected mouse paws; type: in vivo; settings: inflamed mouse paw, 5 h postprobe injection, frozen sections

2-deoxy-2-(^18F)fluoro-D-glucose [^18F-FDG]
18F-FDG liver uptake by PET/CT (lung granulomas): minimal | 18F-FDG uptake in lung granulomas by PET/CT (lung granulomas): readily identifiable above lung background

CC(C)C[C@@H](NC(=O)[C@H](Cc1ccccc1)NC(=O)[C@@H](CC(C)C)NC(=O)[C@H](Cc1ccccc1)NC(=O)C=Cc1ccccc1)C(=O)N[C@@H](Cc1ccccc1)C(=O)O [FLFLF, N-cinnamoyl-F-(D)L-F-(D)L-F] (HELM PEPTIDE1{[O=C(C=Cc1ccccc1)[*:2]].F.[dL].F.[dL].F}$$$$V2.0)
Distribution of FLFLF in peripheral blood fractions [1]: remains in the plasma fraction rather than being bound to blood cells

FLFLF-PEG12: pegylated FLFLF tested for FPR1 internalization (cinnamoyl-F[dL]F[dL]FK([PEG12′-CB‑TE1A1P]); also: CB-TE1A1P chelating 64Cu)
FPR1 internalization / signaling (FPR1): did not lead to internalized receptor

cinnamoyl-F(D)LF(D)LFK-PEG12-Cy3 [Cy3-FLFLF]
Cy3-FLFLF labeling of cells in tissue / colocalization with Gr-1 (Gr-1 stained neutrophils): labeled neutrophils could be detected in tissues by immunofluorescence, although other non-Gr-1-stained cells were detectable; also recorded: variable amounts of colocalization of Cy3-FLFLF and Gr-1
